Test results: patent US20230065562A1, “DUAL CONTROLS FOR THERAPEUTIC CELL ACTIVATION OR ELIMINATION” (Bellicum Pharmaceuticals, Inc., priority 2015, published 2023)

Key:
[1] = test system: iRmC9 T cells (pBP1327, GFP-Fluc); experiment: Drug titration of rimiducid and rapamycin in mice bearing iRmC9 T cells; assay type: in vivo, mouse; conditions: NSG mice; rimiducid 0.00005-5 mg/kg or rapamycin 0.0001-10 mg/kg i.p.; FIGS. 110B & C
Protocol: In this experiment, iRmC9 T cells were produced by co-transduction with pBP1327 and GFP-Fluc retroviruses from donor 584. […] Ten million iRmC9 T cells were injected IV per mouse (Table 10) (time=−14 hr). […] Vehicle groups received either PBS, 25% solutol in PBS or 5% DMA in PT. IVIS imaging was performed at −10, 0, 6, and 24 hours. Mice were sacrificed and spleens were collected for FACS analysis with hCD3, hCD19 and mCD45 antibodies. […] This observation is similar to that observed in the previous experiment (FIG. 109B) and could be due to the components of the PT.
FIG. 110. […] PBMCs from donor 584 were activated and co-transduced with retroviruses encoding the pBP1327 vector and the GFP-Fluc plasmid. (FIG. 110A) Ten days post-transduction, the cells were analyzed for CD19 and GFP transduction efficiency prior to injection into mice. (FIGS. 110B & C) NSG mice were injected i.v. with 1×10^7 T cells co-transduced with GFP-Fluc per mouse and suicide drugs were injected i.p. the next day. Bioluminescence of cells was assessed at −10, 0, 6, and 24 hours post drug administration. (FIG. 110D) At 24 h post-drug treatment, mice were euthanized and spleens were collected for flow cytometry analysis with antibodies to hCD3, […], and mCD45.

iRC9 (pBP1310 & 1311) = iRC9 (pBP1310 & 1311) (Homo sapiens, UniProt P42345+P62942); experiment: SRα-SEAP assay of drug specificity, iRC9 switch, 293 cells; conditions: SRα-SEAP reporter, FIG. 108A
iRC9 (pBP1310 & 1311), sequence (P42345 2025-2113): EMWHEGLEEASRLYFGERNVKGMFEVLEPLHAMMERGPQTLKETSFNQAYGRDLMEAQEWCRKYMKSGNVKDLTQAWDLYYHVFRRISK
iRC9 (pBP1310 & 1311), sequence (P62942 2-107): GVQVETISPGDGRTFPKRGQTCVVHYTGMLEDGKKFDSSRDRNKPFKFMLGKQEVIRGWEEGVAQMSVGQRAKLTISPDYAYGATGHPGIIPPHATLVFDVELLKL
iRC9 (pBP1310 & 1311), sequence (P55211 135-416 partner limits assumed): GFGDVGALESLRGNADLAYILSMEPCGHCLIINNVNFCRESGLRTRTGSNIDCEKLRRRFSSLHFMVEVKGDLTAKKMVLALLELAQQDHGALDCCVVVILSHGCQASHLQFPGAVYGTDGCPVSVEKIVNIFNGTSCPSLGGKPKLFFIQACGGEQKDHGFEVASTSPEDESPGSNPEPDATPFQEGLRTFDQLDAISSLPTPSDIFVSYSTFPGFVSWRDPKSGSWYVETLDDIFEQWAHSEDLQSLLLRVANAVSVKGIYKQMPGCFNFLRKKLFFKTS

HPAC PSCA+ tumor cells = experiment: T cell anti-tumor assay with HPAC-RFP cells (IncuCyte, ELISA); assay type: cell-based, human; conditions: 10 nM on day 7 of co-culture
Protocol: PBMCs from donor 920 were activated and co-transduced with GFP-Ffluc and iMC+CARζ-T (189), i9+CARζ+MC (873), or FwtFRBC9/MC.FvFv (1308)-encoding vectors. […] (A & B) Two days post-seeding, culture supernatants were analyzed for IL-2, IL-6, and IFN-γ production by ELISA. […] Numbers of HPAC-RFP and T cell-GFP at the E:T 1:2 ratio was analyzed using the basic analyzer software for the IncuCyte at day 7 (Ci) and day 8 with 0 nM suicide drug (Cii) and 10 nM suicide drug (Ciii). Similar analysis was also performed at the 1:5 E:T ratio (D). (Note: the y-axis in Ci and Di are at log-scale).
The HPAC PSCA^+ tumor cells were stably labeled with nuclear-localized RFP protein using the NucLight™ Red Lentivirus Reagent (Essen Bioscience, 4625). To set up the coculture, 4000 HPAC-RFP cells were seeded per well of 96-well plates in 100 μl of CTL medium without IL-2 for at least 4 hours to allow tumor cells to adhere. After transduction with the appropriate retrovirus and allowed to rest for at least 7 days in culture, T were seeded according to various E:T ratios to the HPAC-RFP-containing 96-well plates. […] Each plate was set up in duplicates, one plate to monitor with the IncuCyte cell imaging system and one plate for supernatant collection for ELISA assay on day 2. The plates were centrifuged for 5 min at 400×g and placed inside the IncuCyte (Essen Bioscience, Dual Color Model 4459) to monitor red fluorescence (and green fluorescence if T cells were labeled with GFP-Ffluc) every 2-3 hours for a total of 7 days at 10× objective. Image analysis was performed using the “HPAC-RFP_TcellsGFP_10×_MLD” processing definition. On day 7, HPAC-RFP cells were analyzed using the “Red Object Count (1/well)” metric. […] On day 8, Tcell-GFP cells were analyzed using the “Total Green Object Integrated Intensity” metric. Each condition was performed at least in duplicates and each well was imaged at 4 different locations.

[2] = test system: iCasp9M.IRES.IL-12-transduced EBV-CTLs; experiment: IL-12 ELISA of iCasp9M.I.IL-12-transduced EBV-CTL supernatant; assay type: cell-based, human; conditions: 10 nM CID; detection limit 7.8 pg/mL
Protocol: The concentration of interferon-[…] (IFN-[…]), IL-2, IL-4, IL-5, IL-10, and tumor necrosis factor-[…] (TNF[…]) in CTL culture supernatants was measured using the Human Th1/Th2 cytokine cytometric Bead Array (BD Pharmingen) and the concentration of IL-12 in the culture supernatants was measured by enzyme-linked immunosorbent assay (ELISA; R&D Systems, Minneapolis, Minn.) according to the instructions of the manufacturer.
To determine whether iCasp9M could effectively destroy cells genetically modified to express an active transgene product, the ability of iCasp9M to eliminate EBV-CTLs stably expressing IL-12 was measured. While IL-12 was undetectable in the supernatant of nontransduced and iCasp9M.IRES.GFP-transduced CTLs, the supernatant of iCasp9M.IRES.IL-12-transduced cells contained 324 pg/mL to 762 pg/mL IL-12. After administration of 10 nM CID, however, the IL-12 in the supernatant fell to undetectable levels (<7.8 pg/mL). Thus, even without prior sorting for high transgene expressing cells, activation of iCasp9M is sufficient to completely eliminate all T cells producing biologically relevant levels of IL-12. […] Three days after a second antigenic stimulation, the levels of IL-12 in the culture supernatant were measured by IL-12 ELISA (detection limit of this assay is 7.8 pg/mL). […]

Row | SMILES | IVIS imaging of iRmC9 T cells in dose titration [1] | ligand required to activate the iRC9 switch (iRC9 (pBP1310 & 1311)) [nM] | reduction of i9+CARζ+MC T cells (HPAC PSCA+ tumor cells) | IL-12 in the supernatant after CID [2] [pg/mL]
1 | CC[C@H](C(=O)N1CCCC[C@H]1C(=O)O[C@H](CCc1ccc(OC)c(OC)c1)c1cccc(OCC(=O)NCCNC(=O)COc2cccc([C@@H](CCc3ccc(OC)c(OC)c3)OC(=O)[C@@H]3CCCCN3C(=O)[C@@H](CC)c3cc(OC)c(OC)c(OC)c3)c2)c1)c1cc(OC)c(OC)c(OC)c1 [rimiducid] | dose-dependent removal | > 100 | approximately 50% | –
2 | CC[C@H](C(=O)N1CCCC[C@H]1C(=O)O[C@H](CCc1ccc(OC)c(OC)c1)c1cccc(OCC(=O)NCC(CNC(=O)COc2cccc([C@@H](CCc3ccc(OC)c(OC)c3)OC(=O)[C@@H]3CCCCN3C(=O)[C@@H](CC)c3cc(OC)c(OC)c(OC)c3)c2)CN(C)C)c1)c1cc(OC)c(OC)c(OC)c1 [AP20187] | – | – | – | < 7.8
